Source: the supplement of paper PMC10307832

Assays:
Assay in all cases: relative viability (nuclei count vs DMSO), 5 days (fraction); higher = more cells survive
[1] = compound: C1/C(=C\C2=CC=CS2)/C(=O)/C(=C/C3=CC=CS3)/C1 + Nc1ncn([C@H]2C[C@H](O)[C@@H](CO)O2)c(=O)n1 [Decitabine] (partner 2 µM)
How it was run: (§1)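 Medians of duplicate plates are given as relative viability. That measure is the nuclei count in treated wells divided by the count in vehicle wells. Counts were taken on 4× images of lung cancer cell lines in 1536-well plates, 5 days after pin-tool dosing the day after seeding with one drug alone or a fixed anchor-drug dose plus five library-drug doses (not always all listed) in √10 steps.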

[2] = compound: C1/C(=C\C2=CC=CS2)/C(=O)/C(=C/C3=CC=CS3)/C1 + C[C@@H](Oc1cc(-c2cnn(C3CCNCC3)c2)cnc1N)c1c(Cl)ccc(F)c1Cl [Crizotinib] (partner 1 µM)
How it was run: as §1

[3] = compound: C1/C(=C\C2=CC=CS2)/C(=O)/C(=C/C3=CC=CS3)/C1 + C[C@]1(O)C[C@@H](c2nc(-c3ccc4ccc(-c5ccccc5)nc4c3)c3c(N)nccn32)C1 [Linsitinib] (partner 1 µM)
How it was run: as §1

[4] = compound: C[C@]12O[C@H](C[C@]1(O)CO)n1c3ccccc3c3c4c(c5c6ccccc6n2c5c31)CNC4=O [Lestaurtinib] + CC(C)C[C@H](NC(=O)[C@H](Cc1ccccc1)NC(=O)c1cnccn1)B(O)O [Bortezomib] (partner 0.002 µM)
How it was run: as §1

Cell Line | relative viability ([1]; first compound 0.2 µM) | relative viability ([1]; first compound 0.6325 µM) | relative viability ([1]; first compound 2 µM) | relative viability ([1]; first compound 6.325 µM) | relative viability ([1]; first compound 20 µM) | relative viability ([2]; first compound 0.2 µM) | relative viability ([2]; first compound 0.6325 µM) | relative viability ([2]; first compound 2 µM) | relative viability ([2]; first compound 6.325 µM) | relative viability ([2]; first compound 20 µM) | relative viability ([3]; first compound 0.2 µM) | relative viability ([3]; first compound 0.6325 µM) | relative viability ([3]; first compound 2 µM) | relative viability ([3]; first compound 6.325 µM) | relative viability ([3]; first compound 20 µM) | relative viability ([4]; first compound 0.005 µM) | relative viability ([4]; first compound 0.01581 µM) | relative viability ([4]; first compound 0.05 µM) | relative viability ([4]; first compound 0.1581 µM) | relative viability ([4]; first compound 0.5 µM)
NCI-H522 | 0.738 | 0.753 | 0.722 | 0.673 | 0.604 | – | – | – | – | – | – | – | – | – | – | – | – | – | – | –
NCI-H1299 | – | – | – | – | – | 0.958 | 0.976 | 0.928 | 0.903 | 0.589 | 1.02 | 1.04 | 0.933 | 0.789 | 0.956 | 1.04 | 0.982 | 1.03 | 0.843 | 0.751
NCI-H1395 | 0.729 | 0.777 | 0.754 | 0.679 | 0.729 | – | – | – | – | – | 1.12 | 1.06 | 1.29 | 0.89 | 1.05 | – | – | – | – | –
NCI-H1563 | – | – | – | – | – | 0.843 | 0.887 | 0.899 | 0.832 | 0.987 | 1.43 | 1.16 | 1.28 | 0.893 | 1.08 | 0.938 | 0.836 | 0.741 | 0.957 | 0.705
NCI-H1648 | 0.489 | 0.478 | 0.603 | 0.45 | 0.432 | – | – | – | – | – | – | – | – | – | – | – | – | – | – | –
NCI-H1650 | 0.484 | 0.374 | 0.442 | 0.499 | 0.354 | 1.16 | 1.02 | 1.14 | 0.605 | 0.923 | – | – | – | – | – | 0.183 | 0.236 | 0.197 | 0.199 | 0.193
NCI-H1703 | – | – | – | – | – | 0.94 | 1.12 | 0.919 | 0.585 | 0.737 | 1.42 | 0.978 | 0.633 | 0.887 | 0.725 | 0.31 | 0.359 | 0.308 | 0.137 | 0.117
NCI-H1793 | 0.526 | 0.554 | 0.614 | 0.305 | 0.469 | – | – | – | – | – | 0.815 | 0.855 | 0.913 | 0.855 | 0.685 | – | – | – | – | –
NCI-H1944 | 0.423 | 0.427 | 0.439 | – | 0.392 | 1.18 | 1.12 | 1.09 | 1.01 | 0.977 | 1.32 | 1.09 | 1.23 | 1.17 | 1.01 | – | – | – | – | –
NCI-H2170 | 0.439 | 0.436 | 0.466 | 0.466 | 0.479 | 1.29 | 1.29 | 1.26 | 1.03 | 1.07 | – | – | – | – | – | – | – | – | – | –
NCI-H2228 | – | – | – | – | – | 0.669 | 0.528 | 0.515 | 0.374 | 0.441 | 0.764 | 0.628 | 1.16 | 0.563 | 0.631 | 0.994 | 0.805 | 0.629 | 0.476 | 0.185
NCI-H2342 | 0.819 | 0.73 | 0.713 | 0.752 | 0.653 | – | – | – | – | – | – | – | – | – | – | – | – | – | – | –
SK-MES-1 | 0.408 | 0.424 | 0.409 | 0.335 | 0.348 | 0.978 | 1.04 | 0.903 | 0.879 | 0.917 | 1.05 | 1.1 | 0.992 | 0.818 | 0.982 | – | – | – | – | –
SW 900 | 0.404 | 0.434 | 0.375 | 0.42 | 0.438 | – | – | – | – | – | – | – | – | – | – | – | – | – | – | –
